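Protocol summary: plate cells (96-well), add compound at 5 concentrations, incubate 48 h, interpolate endpoints linearly. TGI: concentration producing complete growth inhibition.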
What was measured:
Test in all cases: NCI anticancer screen, dose series, 48 h
NCI-H226 lung = system: NCI-H226 lung
OVCAR-8 ovarian = system: OVCAR-8 ovarian
HS 578T breast = system: HS 578T breast
T-47D breast = system: T-47D breast
KM12 colon = system: KM12 colon
CAKI-1 renal = system: CAKI-1 renal
MCF7 breast = system: MCF7 breast
NCI-H460 lung = system: NCI-H460 lung
HCT-15 colon = system: HCT-15 colon
IGROV1 ovarian = system: IGROV1 ovarian
SK-MEL-28 melanoma = system: SK-MEL-28 melanoma
K-562 leukemia = system: K-562 leukemia
OVCAR-3 ovarian = system: OVCAR-3 ovarian
MDA-MB-231 breast = system: MDA-MB-231 breast
RPMI-8226 leukemia = system: RPMI-8226 leukemia
NCI-H23 lung = system: NCI-H23 lung
CCRF-CEM leukemia = system: CCRF-CEM leukemia
SNB-75 CNS = system: SNB-75 CNS
MALME-3M melanoma = system: MALME-3M melanoma
HL-60(TB) leukemia = system: HL-60(TB) leukemia
UO-31 renal = system: UO-31 renal
SF-539 CNS = system: SF-539 CNS
HOP-62 NSCLC = system: HOP-62 NSCLC
MOLT-4 leukemia = system: MOLT-4 leukemia
PC-3 prostate = system: PC-3 prostate
NCI/ADR-RES ovarian = system: NCI/ADR-RES ovarian
SF-295 CNS = system: SF-295 CNS
NCI-H522 lung = system: NCI-H522 lung
786-0 renal = system: 786-0 renal
SF-268 CNS = system: SF-268 CNS
ACHN renal = system: ACHN renal
A549 NSCLC = system: A549 NSCLC
U251 CNS = system: U251 CNS
COLO 205 colon = system: COLO 205 colon
RXF 393 renal = system: RXF 393 renal
EKVX NSCLC = system: EKVX NSCLC
SR leukemia = system: SR leukemia
UACC-257 melanoma = system: UACC-257 melanoma
BT-549 breast = system: BT-549 breast
SN12C renal = system: SN12C renal
DU-145 prostate = system: DU-145 prostate
SW-620 colon = system: SW-620 colon
TK-10 renal = system: TK-10 renal
SNB-19 CNS = system: SNB-19 CNS
SK-MEL-5 melanoma = system: SK-MEL-5 melanoma
LOX IMVI melanoma = system: LOX IMVI melanoma
HCT-116 colon = system: HCT-116 colon
MDA-N = system: MDA-N
HT29 colon = system: HT29 colon
OVCAR-5 ovarian = system: OVCAR-5 ovarian
HCC-2998 colon = system: HCC-2998 colon
A498 renal = system: A498 renal
MDA-MB-435 = system: MDA-MB-435
UACC-62 melanoma = system: UACC-62 melanoma
OVCAR-4 ovarian = system: OVCAR-4 ovarian
SK-OV-3 ovarian = system: SK-OV-3 ovarian
SK-MEL-2 melanoma = system: SK-MEL-2 melanoma
M14 melanoma = system: M14 melanoma

CN(C)Cc1cc(C(=O)/C=C/c2ccc(Cl)cc2)cc(CN(C)C)c1O
TGI (NCI-H226 lung): 49.8 µM
TGI (OVCAR-8 ovarian): 51.3 µM
TGI (HS 578T breast): 49.3 µM
TGI (T-47D breast): > 100 µM
TGI (KM12 colon): 19.6 µM
TGI (CAKI-1 renal): 20 µM
TGI (MCF7 breast): 39.6 µM
TGI (NCI-H460 lung): 21.8 µM
TGI (HCT-15 colon): 54.4 µM
TGI (IGROV1 ovarian): 29 µM
TGI (SK-MEL-28 melanoma): 26.4 µM
TGI (K-562 leukemia): 21.4 µM
TGI (OVCAR-3 ovarian): 10.8 µM
TGI (MDA-MB-231 breast): 23.5 µM
TGI (RPMI-8226 leukemia): 42.6 µM
TGI (NCI-H23 lung): 39.4 µM
TGI (CCRF-CEM leukemia): 94.2 µM
TGI (SNB-75 CNS): 44.4 µM
TGI (MALME-3M melanoma): 24.8 µM
TGI (HL-60(TB) leukemia): 22.9 µM
TGI (UO-31 renal): 19.9 µM
TGI (SF-539 CNS): 38.7 µM
TGI (HOP-62 NSCLC): 15.8 µM
TGI (MOLT-4 leukemia): 49.9 µM
TGI (PC-3 prostate): 24.7 µM
TGI (NCI/ADR-RES ovarian): 54.2 µM
TGI (SF-295 CNS): 26 µM
TGI (NCI-H522 lung): 10.8 µM
TGI (786-0 renal): 20.2 µM
TGI (SF-268 CNS): 71.1 µM
TGI (ACHN renal): 16.1 µM
TGI (A549 NSCLC): 28.7 µM
TGI (U251 CNS): 28 µM
TGI (COLO 205 colon): 10.7 µM
TGI (RXF 393 renal): 30.3 µM
TGI (EKVX NSCLC): 38.8 µM
TGI (SR leukemia): 45.7 µM
TGI (UACC-257 melanoma): 29.2 µM
TGI (BT-549 breast): 11.3 µM
TGI (SN12C renal): 28.1 µM
TGI (DU-145 prostate): 24.4 µM
TGI (SW-620 colon): 20.5 µM
TGI (TK-10 renal): 39 µM
TGI (SNB-19 CNS): 24.1 µM
TGI (SK-MEL-5 melanoma): 27.6 µM
TGI (LOX IMVI melanoma): 15.3 µM
TGI (HCT-116 colon): 26.5 µM
TGI (MDA-N): 25.3 µM
TGI (HT29 colon): 18.6 µM
TGI (OVCAR-5 ovarian): 54.5 µM
TGI (HCC-2998 colon): 34.1 µM
TGI (A498 renal): 27.7 µM
TGI (MDA-MB-435): 26.5 µM

CNc1ccc(OC)cc1S(=O)(=O)c1ccccc1[N+](=O)[O-]
TGI (NCI-H226 lung): > 100 µM
TGI (OVCAR-8 ovarian): > 100 µM
TGI (HS 578T breast): > 100 µM
TGI (T-47D breast): > 100 µM
TGI (MCF7 breast): > 100 µM
TGI (NCI-H460 lung): > 100 µM
TGI (HCT-15 colon): > 100 µM
TGI (IGROV1 ovarian): > 100 µM
TGI (SK-MEL-28 melanoma): > 100 µM
TGI (K-562 leukemia): > 100 µM
TGI (OVCAR-3 ovarian): > 100 µM
TGI (MDA-MB-231 breast): > 100 µM
TGI (RPMI-8226 leukemia): > 100 µM
TGI (NCI-H23 lung): > 100 µM
TGI (CCRF-CEM leukemia): > 100 µM
TGI (SNB-75 CNS): > 100 µM
TGI (UACC-62 melanoma): > 100 µM
TGI (MALME-3M melanoma): > 100 µM
TGI (HL-60(TB) leukemia): > 100 µM
TGI (UO-31 renal): > 100 µM
TGI (OVCAR-4 ovarian): > 100 µM
TGI (SF-539 CNS): > 100 µM
TGI (HOP-62 NSCLC): > 100 µM
TGI (MOLT-4 leukemia): > 100 µM
TGI (PC-3 prostate): > 100 µM
TGI (SK-OV-3 ovarian): > 100 µM
TGI (NCI/ADR-RES ovarian): > 100 µM
TGI (SF-295 CNS): > 100 µM
TGI (NCI-H522 lung): > 100 µM
TGI (SK-MEL-2 melanoma): > 100 µM
TGI (786-0 renal): > 100 µM
TGI (M14 melanoma): > 100 µM
TGI (SF-268 CNS): > 100 µM
TGI (ACHN renal): > 100 µM
TGI (A549 NSCLC): > 100 µM
TGI (U251 CNS): > 100 µM
TGI (COLO 205 colon): > 100 µM
TGI (RXF 393 renal): > 100 µM
TGI (EKVX NSCLC): > 100 µM
TGI (SR leukemia): > 100 µM
TGI (BT-549 breast): > 100 µM
TGI (SN12C renal): > 100 µM
TGI (DU-145 prostate): > 100 µM
TGI (SW-620 colon): > 100 µM
TGI (TK-10 renal): > 100 µM
TGI (SNB-19 CNS): > 100 µM
TGI (SK-MEL-5 melanoma): > 100 µM
TGI (LOX IMVI melanoma): > 100 µM
TGI (HCT-116 colon): > 100 µM
TGI (MDA-N): > 100 µM
TGI (HT29 colon): > 100 µM
TGI (OVCAR-5 ovarian): > 100 µM
TGI (HCC-2998 colon): > 100 µM
TGI (A498 renal): > 100 µM
TGI (MDA-MB-435): > 100 µM

From PubChem BioAssay (NCI)
